Active and inactive are the calls of the source. No cut-off for these calls is given here.
How the values were obtained:
Histone deacetylase 2 = Histone deacetylase 2 (Homo sapiens, UniProt Q92769); assay: Inhibition of HDAC2 (unknown origin) using fluorogenic substrate incubated for 30 mins by fluorescence based assay
Histone deacetylase 8 = target: T1, Histone deacetylase 8 (Homo sapiens, UniProt Q9BY41); assay: Inhibition of HDAC8 (unknown origin) using fluorogenic substrate incubated for 30 mins by fluorescence based assay
T1 sequence (Q9BY41 whole entry): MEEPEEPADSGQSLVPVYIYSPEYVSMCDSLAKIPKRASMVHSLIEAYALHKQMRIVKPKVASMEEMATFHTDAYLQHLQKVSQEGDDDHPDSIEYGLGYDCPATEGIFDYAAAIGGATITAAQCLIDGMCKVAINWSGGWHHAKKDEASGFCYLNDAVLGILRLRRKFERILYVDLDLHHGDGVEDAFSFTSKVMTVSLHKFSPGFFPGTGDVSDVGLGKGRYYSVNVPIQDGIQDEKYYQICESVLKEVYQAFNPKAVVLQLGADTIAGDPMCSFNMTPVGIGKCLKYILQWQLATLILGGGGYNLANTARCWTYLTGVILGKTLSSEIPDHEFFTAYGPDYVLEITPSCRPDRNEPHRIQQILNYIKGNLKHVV

K562 = assay: cells; format: functional, cell-based; settings: Homo sapiens, K562, 48 h
Description: Antiproliferative activity against human K562 cells assessed as inhibition of cell growth measured after 48 hrs by MTT assay

DNA = assay: Binding affinity to nuclear DNA in human HepG2 cells assessed as colocalization of acridine orange-test compound signal at 5 uM by confocal fluorescence microscopic analysis; format: functional, cell-based
KG-1 [1] = assay: Antiproliferative activity against human KG-1 cells assessed as inhibition of cell growth measured after 48 hrs by MTT assay; format: functional, cell-based; settings: KG-1, 48 h
Calf thymus DNA [2] = assay: Binding affinity to calf thymus DNA assessed as increase in absorption at 20 uM by UV-vis absorption spectroscopy; format: nucleic-acid assay; settings: Bos taurus
PC-3 = assay: cells; format: functional, cell-based; settings: Homo sapiens, PC-3, 48 h
Description: Antiproliferative activity against human PC3 cells assessed as inhibition of cell growth measured after 48 hrs by MTT assay

HEL = assay: cells; format: functional, cell-based; settings: Homo sapiens, 48 h
Description: Antiproliferative activity against HEL cells assessed as inhibition of cell growth measured after 48 hrs by MTT assay

HepG2 = assay: cells; format: functional, cell-based; settings: Homo sapiens, HepG2, 48 h
Description: Antiproliferative activity against human HepG2 cells assessed as inhibition of cell growth measured after 48 hrs by MTT assay

Histone deacetylase 1 = Histone deacetylase 1 (Homo sapiens, UniProt Q13547); assay: Inhibition of HDAC1 (unknown origin) using fluorogenic substrate incubated for 30 mins by fluorescence based assay
Chain of Histone deacetylase 1 (Q13547 whole entry): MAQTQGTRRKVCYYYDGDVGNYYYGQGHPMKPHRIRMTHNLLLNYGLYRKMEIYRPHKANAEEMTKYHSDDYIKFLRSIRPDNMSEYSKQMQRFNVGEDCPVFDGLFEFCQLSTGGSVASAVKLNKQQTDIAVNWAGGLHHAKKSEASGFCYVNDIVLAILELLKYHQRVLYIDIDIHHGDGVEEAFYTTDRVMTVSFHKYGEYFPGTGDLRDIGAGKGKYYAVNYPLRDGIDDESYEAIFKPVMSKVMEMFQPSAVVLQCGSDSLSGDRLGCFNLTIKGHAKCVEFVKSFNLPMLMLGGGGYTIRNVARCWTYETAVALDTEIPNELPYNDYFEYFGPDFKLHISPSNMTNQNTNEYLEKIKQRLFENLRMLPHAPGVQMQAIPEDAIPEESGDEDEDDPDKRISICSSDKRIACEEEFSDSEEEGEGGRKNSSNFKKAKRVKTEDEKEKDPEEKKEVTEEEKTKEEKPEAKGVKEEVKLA

Calf thymus DNA [3] = assay: Binding affinity to calf thymus DNA assessed as change in entropy at 500 microM by isothermal titration calorimetric analysis; format: nucleic-acid assay; settings: Bos taurus
[4] = target: T2, Protein deacetylase HDAC6 (Homo sapiens, UniProt Q9UBN7); assay: Inhibition of HDAC6 (unknown origin) using fluorogenic substrate incubated for 30 mins by fluorescence based assay
T2 sequence (Q9UBN7 whole entry): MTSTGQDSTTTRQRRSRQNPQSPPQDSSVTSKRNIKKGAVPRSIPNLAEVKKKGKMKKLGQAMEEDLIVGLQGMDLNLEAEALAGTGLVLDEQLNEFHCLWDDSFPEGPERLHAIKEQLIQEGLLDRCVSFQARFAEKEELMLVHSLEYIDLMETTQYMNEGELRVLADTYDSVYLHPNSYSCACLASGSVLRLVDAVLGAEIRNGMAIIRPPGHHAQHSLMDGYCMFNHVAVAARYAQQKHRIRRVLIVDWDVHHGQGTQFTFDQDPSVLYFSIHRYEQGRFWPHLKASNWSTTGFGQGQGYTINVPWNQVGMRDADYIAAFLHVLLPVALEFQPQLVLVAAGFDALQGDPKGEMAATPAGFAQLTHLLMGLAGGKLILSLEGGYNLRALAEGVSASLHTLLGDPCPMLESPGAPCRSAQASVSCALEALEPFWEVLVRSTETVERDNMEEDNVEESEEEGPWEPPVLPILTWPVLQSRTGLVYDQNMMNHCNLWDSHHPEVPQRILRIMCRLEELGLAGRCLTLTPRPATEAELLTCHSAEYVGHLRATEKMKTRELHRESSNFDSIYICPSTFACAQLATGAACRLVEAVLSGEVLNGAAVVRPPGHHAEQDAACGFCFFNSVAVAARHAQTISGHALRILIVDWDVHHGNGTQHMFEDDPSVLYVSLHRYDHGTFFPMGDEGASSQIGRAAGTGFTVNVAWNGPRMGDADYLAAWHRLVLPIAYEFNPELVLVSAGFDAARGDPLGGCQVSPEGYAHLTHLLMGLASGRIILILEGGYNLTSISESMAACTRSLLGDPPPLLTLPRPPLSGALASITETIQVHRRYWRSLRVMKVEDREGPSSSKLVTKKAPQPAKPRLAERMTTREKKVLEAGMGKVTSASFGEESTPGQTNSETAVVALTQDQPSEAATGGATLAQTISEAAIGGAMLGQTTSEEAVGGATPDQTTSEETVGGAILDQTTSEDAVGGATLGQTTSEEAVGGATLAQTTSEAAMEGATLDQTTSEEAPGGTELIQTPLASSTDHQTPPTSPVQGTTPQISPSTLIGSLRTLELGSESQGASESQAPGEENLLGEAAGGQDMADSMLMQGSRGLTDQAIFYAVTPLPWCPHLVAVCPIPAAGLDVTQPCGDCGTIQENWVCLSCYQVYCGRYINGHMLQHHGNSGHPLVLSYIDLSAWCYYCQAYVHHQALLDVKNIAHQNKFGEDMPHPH

Histone deacetylase = assay: Inhibition of HDAC in human HeLa nuclear extract using fluorogenic substrate incubated for 30 mins by fluorescence based assay; format: cell-based
B16-F10 [5] = assay: Antitumor activity against mouse B16-F10 cells xenografted in C57BL/6J mouse assessed as change in tumor cell morphology into normal tissue at 60 mg/kg, IG administered for 12 days by H and E staining based histopathological analysis; format: functional, organism-based; settings: time 12.0 day
B16-F10 [6] = assay: Antitumor activity against mouse B16-F10 cells xenografted in C57BL/6J mouse assessed as reduction in tumor heterogeneity at 60 mg/kg, IG administered for 12 days by H and E staining based histopathological analysis; format: functional, organism-based; settings: time 12.0 day
B16-F10 [7] = assay: Antitumor immunity against mouse B16-F10 cells implanted in C57BL/6J mouse assessed as increase in proportion of T cells in spleen by flow cytometry analysis; format: functional, cell-based
[8] = Toxicity in C57BL/6J mouse implanted with mouse B16-F10 cells assessed as liver damage at 60 mg/kg, IG administered for 12 days H and E staining based histopathological analysis; format: organism-based; settings: in vivo, po, 288 h, time 12 day
[9] = Toxicity in C57BL/6J mouse implanted with mouse B16-F10 cells assessed as heart damage at 60 mg/kg, IG administered for 12 days H and E staining based histopathological analysis; format: organism-based; settings: in vivo, po, 288 h, time 12 day
B16-F10 [10] = assay: Antitumor activity against mouse B16-F10 cells implanted in C57BL/6J mouse assessed as reduction on tumor volume at 60 mg/kg, IG administered for 12 days; format: functional, organism-based; settings: time 12.0 day
B16-F10 [11] = assay: Antitumor activity against mouse B16-F10 cells implanted in C57BL/6J mouse assessed as reduction on tumor weight at 60 mg/kg, IG administered for 12 days; format: functional, organism-based; settings: time 12.0 day
[12] = Toxicity in C57BL/6J mouse implanted with mouse B16-F10 cells assessed as spleen damage at 60 mg/kg, IG administered for 12 days H and E staining based histopathological analysis; format: organism-based; settings: in vivo, po, 288 h, time 12 day
KG-1 [13] = assay: Downregulation of SSRP-1 expression in human KG-1 cells assessed as chromatin damage at 0.5 to […] measured after 24 hrs by Western blot analysis; format: functional, cell-based; settings: dose 0.5-2.5 µM
[14] = Toxicity in C57BL/6J mouse implanted with mouse B16-F10 cells assessed as effect on body weight at 60 mg/kg, IG administered for 12 days; format: organism-based; settings: in vivo, po, 288 h, time 12 day
B16-F10 [15] = assay: Antitumor activity against mouse B16-F10 cells implanted in C57BL/6J mouse assessed as reduction on tumor size at 60 mg/kg, IG administered for 12 days; format: functional, organism-based; settings: time 12.0 day
KG-1 [16] = assay: Downregulation of SPT16 expression in human KG-1 cells assessed as chromatin damage at 0.5 to […] measured after 24 hrs by Western blot analysis; format: functional, cell-based; settings: dose 0.5-2.5 µM
[17] = Toxicity in C57BL/6J mouse implanted with mouse B16-F10 cells assessed as glomerular structure damage in kidney at 60 mg/kg, IG administered for 12 days H and E staining based histopathological analysis; format: organism-based; settings: in vivo, po, 288 h, time 12 day
KG-1 [18] = assay: Induction of apoptosis in human KG-1 cells assessed as total apoptotic cells at 1 uM measured after 24 hrs by Annexin V-FITC/propidium iodide staining based flow cytometry analysis relative to control; format: functional
[19] = Toxicity in C57BL/6J mouse implanted with mouse B16-F10 cells assessed as lung damage at 60 mg/kg, IG administered for 12 days H and E staining based histopathological analysis; format: organism-based; settings: in vivo, po, 288 h, time 12 day

Chain of Histone deacetylase 2 (Q92769 whole entry): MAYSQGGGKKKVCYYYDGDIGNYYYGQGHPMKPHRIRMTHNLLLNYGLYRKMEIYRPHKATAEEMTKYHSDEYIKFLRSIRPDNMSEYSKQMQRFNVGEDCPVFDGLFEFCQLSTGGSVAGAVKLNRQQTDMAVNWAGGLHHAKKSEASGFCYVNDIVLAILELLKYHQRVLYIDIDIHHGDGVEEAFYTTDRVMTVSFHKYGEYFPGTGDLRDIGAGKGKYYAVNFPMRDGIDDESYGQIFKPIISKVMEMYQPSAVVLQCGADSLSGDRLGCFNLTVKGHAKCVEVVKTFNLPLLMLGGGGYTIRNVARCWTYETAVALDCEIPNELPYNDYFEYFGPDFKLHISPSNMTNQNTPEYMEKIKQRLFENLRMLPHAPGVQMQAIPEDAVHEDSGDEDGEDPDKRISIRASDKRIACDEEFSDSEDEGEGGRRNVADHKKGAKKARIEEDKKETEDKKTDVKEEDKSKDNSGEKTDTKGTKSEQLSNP

For `O=C(CCCCCCOc1ccc(-c2nc3ccc(-c4nc5ccccc5[nH]4)cc3[nH]2)cc1)NO`, the IC50 (Histone deacetylase 2) was 0.032 µM, the IC50 (Histone deacetylase 8) was > 20 µM and the IC50 (K562) was 0.51 µM. The Activity (DNA) was “Active”, the IC50 (KG-1 [1]) was 1.4 µM and the Activity (Calf thymus DNA [2]) was “Active”. For the same molecule, the IC50 (PC-3) was 4.4 µM, the IC50 (HEL) was 1.9 µM and the IC50 (HepG2) was 11 µM. For the same molecule, the IC50 (Histone deacetylase 1) was 0.031 µM, the -TdeltaS (Calf thymus DNA [3]) was 190 kJ/mol and the IC50 [4] was 0.029 µM. For the same molecule, the IC50 (Histone deacetylase) was 0.0076 µM.
`CN1CCN(c2ccc3nc(-c4ccc5nc(-c6ccc(O)cc6)[nH]c5c4)[nH]c3c2)CC1` gave an IC50 (KG-1 [1]) of 42 µM.
For `O=C(CCCOc1cccc(-c2nc3ccc(-c4nc5ccccc5[nH]4)cc3[nH]2)c1)NO`, the IC50 (Histone deacetylase) was 0.05 µM.
`O=C(CCCCOc1ccc(-c2nc3ccc(-c4nc5ccccc5[nH]4)cc3[nH]2)cc1)NO` showed an IC50 (Histone deacetylase) of 0.2188 µM.
Molecule `O=C(CCCCOc1ccc(-c2nc3ccccc3[nH]2)cc1)NO` has an IC50 (Histone deacetylase) of 0.1891 µM.
Molecule `O=C(CCCCCCCOc1ccc(-c2nc3ccc(-c4nc5ccccc5[nH]4)cc3[nH]2)cc1)NO` has an IC50 (Histone deacetylase) of 0.0201 µM.
In the case of `O=C(COc1ccc(-c2nc3ccc(-c4nc5ccccc5[nH]4)cc3[nH]2)cc1)NO`, the IC50 (Histone deacetylase) is reported as > 1 µM.
For `O=C(CCCCCCCOc1cccc(-c2nc3ccc(-c4nc5ccccc5[nH]4)cc3[nH]2)c1)NO`, the IC50 (Histone deacetylase 2) was 0.081 µM, the IC50 (Histone deacetylase 8) was > 20 µM and the IC50 (K562) was 2.9 µM. For the same molecule, the IC50 (KG-1 [1]) was 1.6 µM, the IC50 (PC-3) was 6.9 µM and the IC50 (HEL) was 2.3 µM. The IC50 (HepG2) was 16 µM, the IC50 (Histone deacetylase 1) was 0.047 µM and the IC50 [4] was 0.023 µM. The IC50 (Histone deacetylase) was 0.0073 µM.
With `O=C(CCCCCCOc1cccc(-c2nc3ccc(-c4nc5ccccc5[nH]4)cc3[nH]2)c1)NO` the IC50 (Histone deacetylase) was 0.0179 µM.
`O=C(CCCCCCOc1ccc(-c2nc3ccccc3[nH]2)cc1)NO` showed an IC50 (Histone deacetylase) of 0.0403 µM.
Molecule `O=C(CCCCOc1cccc(-c2nc3ccc(-c4nc5ccccc5[nH]4)cc3[nH]2)c1)NO` has an IC50 (Histone deacetylase) of 0.3043 µM.
`O=C(CCCCCOc1ccc(-c2nc3ccccc3[nH]2)cc1)NO` gave an IC50 (Histone deacetylase) of 0.076 µM.
With `O=C(CCCOc1ccc(-c2nc3ccccc3[nH]2)cc1)NO` the IC50 (Histone deacetylase) was 0.9813 µM.
For `O=C(CCCCCCCOc1ccc(-c2nc3ccccc3[nH]2)cc1)NO`, the IC50 (Histone deacetylase) was 0.0493 µM.
For `O=C(COc1cccc(-c2nc3ccccc3[nH]2)c1)NO`, the IC50 (Histone deacetylase) was > 1 µM.
For `O=C(CCCOc1ccc(-c2nc3ccc(-c4nc5ccccc5[nH]4)cc3[nH]2)cc1)NO`, the IC50 (Histone deacetylase) was > 1 µM.
Molecule `O=C(CCCCOc1cccc(-c2nc3ccccc3[nH]2)c1)NO` has an IC50 (Histone deacetylase) of 0.1944 µM.
`O=C(CCCCCOc1cccc(-c2nc3ccccc3[nH]2)c1)NO` gave an IC50 (Histone deacetylase) of 0.1186 µM.
With `O=C(CCCCCCC(=O)Nc1ccccc1)NO` [VORINOSTAT] the Activity (B16-F10 [5]) was “Active”, the Activity (B16-F10 [6]) was “Active” and the Activity (B16-F10 [7]) was “Active”. The IC50 (KG-1 [1]) was 0.07 µM, the Activity [8] was “Non-Toxic” and the Activity [9] was “Non-Toxic”. The Activity (B16-F10 [10]) was “Active”, the Activity (B16-F10 [11]) was “Active” and the Activity [12] was “Non-Toxic”. The Activity (KG-1 [13]) was “inactive”, the Activity [14] was “Non-Toxic” and the Activity (B16-F10 [15]) was “Active”. For the same molecule, the Activity (KG-1 [16]) was “inactive”, the Activity [17] was “Toxic” and the Activity (KG-1 [18]) was 18.2%. The Activity [19] was “Non-Toxic”.
In the case of `O=C(CCCCCOc1cccc(-c2nc3ccc(-c4nc5ccccc5[nH]4)cc3[nH]2)c1)NO`, the IC50 (Histone deacetylase) is reported as 0.0274 µM.
For `O=C(COc1cccc(-c2nc3ccc(-c4nc5ccccc5[nH]4)cc3[nH]2)c1)NO`, the IC50 (Histone deacetylase) was > 1 µM.
Molecule `O=C(CCCCCOc1ccc(-c2nc3ccc(-c4nc5ccccc5[nH]4)cc3[nH]2)cc1)NO` has an IC50 (Histone deacetylase) of 0.04362 µM.
For `O=C(CCCOc1cccc(-c2nc3ccccc3[nH]2)c1)NO`, the IC50 (Histone deacetylase) was 0.4904 µM.
In the case of `O=C(COc1ccc(-c2nc3ccccc3[nH]2)cc1)NO`, the IC50 (Histone deacetylase) is reported as 0.1567 µM.

From ChEMBL document CHEMBL5038666, “Discovery of DNA-Targeting HDAC Inhibitors with Potent Antitumor Efficacy In Vivo That Trigger Antitumor Immunity” (J Med Chem, 2022)
